Patent publication US20120034631A1, “ANTI-LYSOPHOSPHOLIPID ANTIBODY DESIGN USING ANTIBODY STRUCTURES” (priority 2010, published 2012)
Marks after values point to notes of the source that are not given here.

Columns and labels:
ovarian tumor SKOV3 = assay: SKOV3 ovarian tumor progression and cytokines in nude mice; format: in vivo
Procedure: Human mAb LT3015 reduced ovarian tumor SKOV3 progression and circulating cytokines in biological fluids. Nude mice were engrafted with either 10 mg/kg LT3015, vehicle, or 2 mg/kg paclitaxel (Taxol). After 56 days, mice were sacrificed and the peritoneal cavities were analyzed for tumor burden and ascites fluid accumulation. Tumors were harvested and final tumor weights were determined along with ascites volumes. Data were analyzed by ANOVA and student's t-test analysis. […] Serum and ascites levels of IL-6, IL-8, GM-CSF and VEGF were measured using ELISA kits from R&D systems, Minneapolis Minn.

[1] = test system: CXCL8/IL-8 release, SKOV3 ovarian cells; assay: LPA-induced IL-8 release in SKOV3 cells; format: cell-based, human; conditions: 1 uM LPA alone (stimulus)
Procedure: (§1) Anti-LPA antibodies inhibit the LPA-dependant release of human CXCL8/IL-8 in conditioned media of SKOV3 ovarian cells. SKOV3 cells (Lot No 4255558, passage 14) were harvested with 2 ml of 1× Trypsin EDTA (Mediatech Inc, Cat. No 25-053-CV) and resuspended in 8 ml of complete medium (10% FBS, Mediatech Inc. Cat. no 35-011-CV). The cells were centrifuged for 5 min ([…]) and re-suspended in 5 ml of complete medium. Cells were counted in duplicate with 0.4% Trypan blue (10 ul cells plus 90 ul Trypan blue, Invitrogen, Cat. No 15250-061) using a hemocytometer. In a 96-well plate, 1×10^5 cells per well were seeded (final volume 100 ul/well). The cells were allowed to attach and form a confluent monolayer by incubating overnight at 37° C. On the following day, cells were gently washed two times with minimum media (1 mg/ml BSA in McCoy's medium with L-glutamine, Mediatech, Cat. No 10-050-CV). […] The CXCL8/IL-8 levels in each supernatant were measured using the Quantikine human CXCL8/IL-8 ELISA kit according to vendor instructions (R&D Systems, Minneapolis Minn., Cat. No D8000C). The IL-6 levels were measured by ELISA using the Quantikine human IL-6 immunoassay kit (R&D systems, Cat. No. D6050). Data were analyzed by one-way ANOVA followed by Bonferroni's post test and expressed as human IL-8 or human IL-6 fold increase.

[2] = test system: IL-6 release, SKOV3 ovarian cells; assay: LPA-induced IL-6 release in SKOV3 cells; format: cell-based, human; conditions: 1 uM LPA alone (stimulus)
Procedure: as §1

SKOV3 cells = assay: Tumor cell migration in the scratch assay; format: cell-based; conditions: 17 hr
Procedure: SKOV3 cells were plated at 15,000 cells per well in a 96-well plate. The following day the cells were serum starved in minimal media (McCoy's Media 5a, adjusted to contain L-Glutamine, 2.2 g/L Sodium Bicarbonate, 1% penicillin/streptomycin and 1 mg/ml BSA) for 24 hrs. At time 0 cells were scratched with a p200 pipet tip down the center of each well, washed with minimal media and pictures were taken prior to treatment. Cells were then treated with LPA (C18:1) at 0.2 uM, 1.0 uM and 10 uM concentrations which were pre-incubated at 37° C. with […] in the presence or absence of antibody at 150 ug/ml. Positive control (10% FBS treated cells) and antibody alone added to 1 uM LPA, were also tested. Cells were stimulated for 17 hrs at 37° C. in a 5% CO2 incubator. Pictures were taken again 17 hr post-treatment and % wound closure was measured by adjusting pictures to the same size and measuring the width of the scratch at time 0 and time 17 hr with a ruler. Data were analyzed by Student's t-test.

## CC(=O)O[C@H]1C(=O)[C@@]2(C)[C@H]([C@H](OC(=O)c3ccccc3)[C@]3(O)C[C@H](OC(=O)[C@H](O)[C@@H](NC(=O)c4ccccc4)c4ccccc4)C(C)=C1C3(C)C)[C@]1(OC(C)=O)CO[C@@H]1C[C@@H]2O [Taxol, paclitaxel]
Ovarian tumor SKOV3; 56 days, LT3015 10 mg/kg, Taxol 2 mg/kg, mean ± S.E., vehicle 1274 ± 209
  Tumor Burden: 381 ± 73 mg
Ovarian tumor SKOV3; 56 days, LT3015 10 mg/kg, Taxol 2 mg/kg, versus vehicle
  % Reduction (tumor burden): 70.1%
Ovarian tumor SKOV3; LT3015 10 mg/kg (N = 4), Taxol 2 mg/kg (N = 1), vehicle 1200 ± 248.2
  GM-CSF-ascites: 2054 ± 0 pg/mL
Ovarian tumor SKOV3; LT3015 10 mg/kg (N = 4), Taxol 2 mg/kg (N = 1), vehicle 2097 ± 132.1
  IL-8-ascites: 2187 ± 0 pg/mL
Ovarian tumor SKOV3; LT3015 10 mg/kg (N = 4), Taxol 2 mg/kg (N = 1), vehicle 3341 ± 202.5
  VEGF-ascites: 3344 ± 0 pg/mL
Ovarian tumor SKOV3; LT3015 10 mg/kg, Taxol 2 mg/kg, vehicle 3.563 ± 1.144
  Ascites volume: 0.2 ± 0.0 mL
Ovarian tumor SKOV3; LT3015 10 mg/kg, Taxol 2 mg/kg, vehicle 84.56 ± 16.62
  IL-6-serum: 29.19 ± 9.568 pg/mL
Ovarian tumor SKOV3; LT3015 10 mg/kg, Taxol 2 mg/kg, vehicle 320.5 ± 43.18
  GM-CSF-serum: 340.2 ± 62.98 pg/mL
Ovarian tumor SKOV3; LT3015 10 mg/kg, Taxol 2 mg/kg, vehicle 687.6 ± 114.1
  IL-8-serum: 234.7 ± 83.04 pg/mL
Ovarian tumor SKOV3; animals with ascites / animals, LT3015 10 mg/kg, Taxol 2 mg/kg, vehicle 6/11
  Ascites presence: 1/7

## Lysophosphatidic acid [LPA]
[1]
  Human IL-8 Fold Increase (approx).: ~7.1## fold
[2]
  Human IL-6 Fold Increase (approx).: ~29## fold
SKOV3 cells; 0.2 uM LPA
  Percent wound closure (approx.): ~65%
SKOV3 cells; 1.0 uM LPA
  Percent wound closure (approx.): ~81%
SKOV3 cells; 10 uM LPA
  Percent wound closure (approx.): ~89%
